These results are taken from patent publication US20230233541A1, “SUBSTITUTED BENZAMIDES AS MODULATORS OF TREX1” (Constellation Pharmaceuticals, Inc., priority 2020, published 2023).

One assay has as its target T1, full length human TREX1 (Homo sapiens, UniProt Q9NSU2).
T1 construct: N-terminally His-Tev tagged full length human TREX1; His-Tev (His tag with TEV protease site) (N); made in house; host or cells: E. coli
T1 sequence (Q9NSU2 1-314): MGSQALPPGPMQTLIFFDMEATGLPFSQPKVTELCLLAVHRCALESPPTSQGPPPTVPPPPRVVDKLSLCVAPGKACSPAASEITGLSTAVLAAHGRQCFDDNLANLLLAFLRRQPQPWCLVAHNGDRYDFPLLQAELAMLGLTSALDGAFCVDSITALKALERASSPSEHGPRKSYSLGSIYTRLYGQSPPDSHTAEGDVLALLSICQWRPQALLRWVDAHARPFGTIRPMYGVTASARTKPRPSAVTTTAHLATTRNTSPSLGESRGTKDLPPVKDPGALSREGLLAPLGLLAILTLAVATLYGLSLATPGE
As to the kind of experiment: TREX1 Biochemical Assay (fluorescence assay, degradation of dsDNA substrate). The settings on record: 150 pM TREX1, 60 nM dsDNA substrate, 25 minutes at room temperature; read-out: hTREX1 EC50. A digest of the protocol: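 E. coli-expressed His-Tev-tagged full-length TREX1 (150 pM) with 60 nM quenched-fluorophore dsDNA in Tris pH 7.4, 150 mM NaCl, 100 mM MgCl2, 1% DMSO, 25 min room temperature, 10-point dose-response. EDTA stop; fluorescence 615 nm (ex 570 nm); IC50 from four-parameter fit against pre-quenched and no-inhibitor controls.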

For assay [1], the target named is T2, human TREX2 (residues M44-A279) (Homo sapiens, UniProt Q9BQ50).
T2 construct: human TREX2 (residues M44-A279, expressed in E. coli); His-Tev (His tag with TEV protease site) (N); made in house; host or cells: E. coli
T2 sequence (Q9BQ50 44-279 isoform Q9BQ50-1): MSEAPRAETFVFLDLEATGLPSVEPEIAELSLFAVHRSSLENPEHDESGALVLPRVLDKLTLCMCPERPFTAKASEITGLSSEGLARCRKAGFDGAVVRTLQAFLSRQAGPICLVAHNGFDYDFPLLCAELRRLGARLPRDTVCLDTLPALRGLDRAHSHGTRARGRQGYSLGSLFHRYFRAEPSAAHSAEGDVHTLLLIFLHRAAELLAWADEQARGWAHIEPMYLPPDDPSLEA
As to the kind of experiment: TREX2 Biochemical Assay (fluorescence assay, degradation of dsDNA substrate). The following applies: 2.5 nM TREX2, 60 nM dsDNA substrate, 25 minutes at room temperature; read-out: hTREX2 EC50. The procedure, abridged:
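His-Tev-tagged human TREX2 (M44-A279, E. coli-expressed) at 2.5 nM final, with 60 nM TEX615/quencher-labelled dsDNA in pH 7.4 Tris buffer with MgCl2 and 1.0% DMSO, 10-point dose-response, 25 min at room temperature, then EDTA quench. Fluorescence read at 615 nm (ex 570 nm). IC50 from four-parameter fit against pre-quenched and no-inhibitor controls.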

Bounds are passed on as bounds.

As to `NC(=O)Cc1ccc(CN(Cc2ccc(Cl)cc2Cl)C(=O)c2cc(F)cc(F)c2)cn1` [Compound 217], the EC50 – broadly, the concentration that produces a half-maximal response – was 0.1 to 1 µM on full length human TREX1 and over 100 µM in assay [1].

`O=C(O)Cn1cc(CN(Cc2ccc(Cl)cc2Cl)C(=O)c2cc(F)cc(F)c2)cn1` [Compound 165, 2-(4-((N-(2,4-dichlorobenzyl)-3,5-difluorobenzamido)methyl)-1H-pyrazol-1-yl)acetic acid]: the EC50 on full length human TREX1 was 1 to 10 µM; in assay [1], over 100 µM.

As to `NC(=O)c1ccc(CN(Cc2ccc(Cl)cc2Cl)C(=O)c2cccc(F)c2)cn1` [Compound 143, 5-({N-[(2,4-dichlorophenyl)methyl]-1-(3-fluorophenyl)formamido}methyl)pyridine-2-carboxamide], the EC50 is over 10 µM at full length human TREX1 and over 100 µM in assay [1].

As to `O=C(c1cc(F)cc(F)c1)N(Cc1cnc2c(=O)[nH]c(=O)[nH]c2c1)Cc1cccc(Cl)c1Cl` [Compound 181], the EC50 at full length human TREX1 is 0.1 to 1 µM; in assay [1], 1 to 10 µM.

As to `O=C(c1cccc(F)c1)N(Cc1cccnc1)CC1CCCCC1` [Compound 132], the EC50 was over 10 µM on full length human TREX1 and over 100 µM in assay [1].

Regarding `Cc1cc(C(=O)N(Cc2cccnc2)Cc2cc(Cl)cc(Cl)c2)ccc1Br` [Compound 78], the EC50 was over 10 µM on full length human TREX1 and over 100 µM in assay [1].

On to `O=C(c1ccc(F)c(F)c1)N(Cc1cccnc1)Cc1ccc(Cl)cc1Cl` [Compound 101], for which the EC50 on full length human TREX1 is 1 to 10 µM; in assay [1], over 100 µM.

Regarding `CC[C@@H](c1cccc(OC)c1C(F)(F)F)N(Cc1ccc(C(=O)O)nc1)C(=O)c1cc(F)cc(F)c1` [Compound 197], the EC50 was under 0.1 µM at full length human TREX1 and 1 to 10 µM in assay [1].

`Cn1ncc2cc(CN(Cc3cccnc3)C(=O)c3cccc(F)c3)ccc21` [Compound 126]: the EC50 at full length human TREX1 is over 10 µM; in assay [1], over 100 µM.

On to `O=C(O)c1ccc(CN(Cc2ncc3ccccc3c2Cl)C(=O)c2cc(F)cc(F)c2)cn1` [Compound 190], for which the EC50 on full length human TREX1 was under 0.1 µM; in assay [1], 1 to 10 µM.

Regarding `O=C(c1ccccc1)N(Cc1cccnc1)Cc1cc(Cl)cc(Cl)c1` [Compound 1, N-[(3,5-dichlorophenyl)methyl]-N-[(pyridin-3-yl)methyl]benzamide], the concentration giving a half-maximal response (EC50) is over 10 µM at full length human TREX1 and over 100 µM in assay [1].

With `C[C@@H](c1cccnc1)N(Cc1ccc(Cl)cc1Cl)C(=O)c1cccc(F)c1` (single isomer, unassigned) [Compound 154], the results for the EC50 (on full length human TREX1; in assay [1]) were over 10 µM and over 100 µM, respectively.

Regarding `O=C(c1cccc(F)c1)N(Cc1cccnc1)Cc1ccccc1F` [Compound 129], the EC50 at full length human TREX1 was over 10 µM; in assay [1], over 100 µM.

Consider `O=C(c1cccc(F)c1)N(Cc1cncnc1)Cc1ccc(Cl)cc1Cl` [Compound 106], for which the 50% effective concentration (EC50) at full length human TREX1 was 1 to 10 µM; in assay [1], over 100 µM.

`O=C(C1CCC(O)CC1)N(Cc1cccnc1)Cc1ccc(Cl)cc1Cl` (stereo not shown) [Compound 86]: the 50% effective concentration (EC50) was over 10 µM at full length human TREX1 and over 100 µM in assay [1].

For the compound `O=C(c1cccc(F)c1)N(CCc1ccc(Cl)cc1Cl)Cc1cccnc1` [Compound 133], the EC50 on full length human TREX1 was over 10 µM; in assay [1] it was over 100 µM.

Regarding `O=C(c1cccc(-c2ccccc2)c1)N(Cc1cccnc1)Cc1cc(Cl)cc(Cl)c1` [Compound 56], the EC50 on full length human TREX1 was over 10 µM; in assay [1], over 100 µM.

`O=C(c1ccc(Br)cc1)N(Cc1cccnc1)Cc1ccc(Cl)cc1Cl` [Compound 6]: the EC50 on full length human TREX1 was 1 to 10 µM; in assay [1], over 100 µM.

Consider `O=C(c1ccc(O)cc1)N(Cc1cccnc1)Cc1cc(Cl)cc(Cl)c1` [Compound 48], for which the half-maximal effective concentration (EC50) at full length human TREX1 was over 10 µM; in assay [1], over 100 µM.

Consider `O=C(c1ccccc1)N(Cc1cccnc1)Cc1ccc(Cl)cc1Cl` [Compound 2], for which the figures for the EC50 (at full length human TREX1; in assay [1]) were 1 to 10 µM and over 100 µM, respectively.

As to `O=C(c1cc(F)cc(F)c1)N(Cc1ccc(-c2cnn[nH]2)nc1)Cc1ccccc1Cl` [Compound 171], the EC50 on full length human TREX1 lay in the range of 0.1 to 1 µM; in assay [1], 10 to 100 µM.

Regarding `O=C(O)c1ccc(CN(Cc2c(Cl)cccc2Cl)C(=O)c2cc(F)cc(F)c2)cn1` [Compound 186], the EC50 on full length human TREX1 is under 0.1 µM; in assay [1], 1 to 10 µM.

`O=C(c1ccccc1N1CCCCC1)N(Cc1cccnc1)Cc1cc(Cl)cc(Cl)c1` [Compound 46]: the EC50 at full length human TREX1 was over 10 µM; in assay [1] it was over 100 µM.

Turning to `N#Cc1ccccc1CN(Cc1ccc(C(=O)O)nc1)C(=O)c1cc(F)cc(F)c1` [Compound 192], the EC50 is over 10 µM on full length human TREX1 and over 100 µM in assay [1].

As to `CC[C@@H](c1cccc(Cl)c1OC)N(Cc1cnc(C(=O)O)c(N)c1)C(=O)c1cc(F)cc(F)c1` [Compound 250], the EC50 is under 0.1 µM on full length human TREX1 and 10 to 100 µM in assay [1].

Regarding `O=C(c1cccc(F)c1)N(Cc1cccnn1)Cc1ccc(Cl)cc1Cl` [Compound 107], the EC50 at full length human TREX1 is over 10 µM; in assay [1], over 100 µM.

With `Cn1ncc2ccc(CN(Cc3cccnc3)C(=O)c3cccc(F)c3)cc21` [Compound 128], the results for the EC50 (at full length human TREX1; in assay [1]) were 1 to 10 µM and over 100 µM, respectively.

As to `O=C(c1ccc(-c2ccccc2)cc1)N(Cc1cccnc1)Cc1ccc(Cl)cc1Cl` [Compound 24], the EC50 at full length human TREX1 is over 10 µM; in assay [1] it was over 100 µM.

For `O=C(c1cc(F)cc(F)c1)N(Cc1cccnc1)[C@H](CCO)c1ccc(Cl)cc1Cl` [Compound 260], the values for the EC50 (on full length human TREX1; in assay [1]) were under 0.1 µM and 1 to 10 µM, respectively.

As for `COc1cccc(CN(Cc2ccc(C(=O)O)nc2)C(=O)c2cc(F)cc(F)c2)c1C` [Compound 195], the EC50 at full length human TREX1 was under 0.1 µM; in assay [1] it was 1 to 10 µM.

`CC[C@H](c1cccc(OC)c1C(F)(F)F)N(Cc1ccc(C(=O)O)nc1)C(=O)c1cc(F)cc(F)c1` [Compound 196]: the figures for the EC50 (on full length human TREX1; in assay [1]) were under 0.1 µM and under 1 µM, respectively.

As to `O=C(c1cccc(F)c1F)N(Cc1cccnc1)Cc1ccc(Cl)cc1Cl` [Compound 124], the EC50 on full length human TREX1 was 1 to 10 µM; in assay [1], over 100 µM.

`NC(=O)c1ccc(CN(Cc2cccc(Cl)c2Cl)C(=O)c2cc(F)cc(F)c2)cn1` [Compound 150]: the values for the EC50 (at full length human TREX1; in assay [1]) were 1 to 10 µM and over 100 µM, respectively.

For `O=C(CCCCc1ccccc1)N(Cc1cccnc1)Cc1ccc(Cl)cc1Cl` [Compound 93], the EC50 was over 10 µM at full length human TREX1 and over 100 µM in assay [1].

With `C[C@@H](c1ccc(C(N)=O)cc1Cl)N(Cc1cccnc1)C(=O)c1cccc(F)c1` (single isomer, unassigned) [Compound 164], the EC50 at full length human TREX1 was over 10 µM; in assay [1] it was 10 to 100 µM.

Take `O=C(O)c1ccc(CN(Cc2nccc(Cl)c2Cl)C(=O)c2cc(F)cc(F)c2)cn1` [Compound 203]: the EC50 at full length human TREX1 was under 0.1 µM; in assay [1] it was 1 to 10 µM.

Turning to `O=C(O)c1ccc(CN(Cc2ccccc2Cl)C(=O)c2cccc(F)c2)cn1` [Compound 151], the EC50 at full length human TREX1 lay in the range of 0.1 to 1 µM; in assay [1], 10 to 100 µM.

For `Cn1cc(CN(Cc2ccc(C(=O)O)nc2)C(=O)c2cc(F)cc(F)c2)c(C(F)(F)F)n1` [Compound 185], the EC50 on full length human TREX1 lay in the range of 0.1 to 1 µM; in assay [1] it was 10 to 100 µM.

In the case of `C[C@H](c1ccc(C(N)=O)cc1Cl)N(Cc1cccnc1)C(=O)c1cccc(F)c1` (single isomer, unassigned) [Compound 163], the EC50 on full length human TREX1 lay in the range of 0.1 to 1 µM; in assay [1] it was 10 to 100 µM.

In the case of `O=C(c1cccc(F)c1)N(Cc1ccc(Cl)cc1)Cc1cccnc1` [Compound 138, N-[(4-chlorophenyl)methyl]-3-fluoro-N-[(pyridin-3-yl)methyl]benzamide], the EC50 on full length human TREX1 is over 10 µM; in assay [1], over 100 µM.

Turning to `O=C(c1cccc(F)c1)N(Cc1cccnc1)Cc1c(F)cccc1Cl` [Compound 130], the EC50 on full length human TREX1 lay in the range of 1 to 10 µM; in assay [1] it was 10 to 100 µM.

Take `O=C(c1cc(F)cc(F)c1)N(Cc1ccc(-n2cccn2)nc1)Cc1ccc(Cl)cc1Cl` [Compound 175]: the EC50 at full length human TREX1 is 0.1 to 1 µM; in assay [1] it was over 100 µM.

`CC(=O)Nc1ccc(CN(Cc2cccc(Cl)c2Cl)C(=O)c2cccc(F)c2)cn1` [Compound 214]: the results for the EC50 (at full length human TREX1; in assay [1]) were 1 to 10 µM and over 100 µM, respectively.

Consider `Cc1cccc(CN(Cc2cccnc2)C(=O)c2cccc(F)c2)c1Cl` [Compound 135], for which the figures for the EC50 (at full length human TREX1; in assay [1]) were 1 to 10 µM and 10 to 100 µM, respectively.
